# Values of other authors in patent US9993454B2, “Solid nanoparticle formulation of water insoluble pharmaceutical substances with reduced Ostwald ripening” (Luminus Biosciences, Inc., priority 2006, dated 2018).
# Settings: most test systems
smiles,measurement,value
C/C(=C\c1csc(C)n1)[C@@H]1C[C@@H]2O[C@]2(C)CCC[C@H](C)[C@H](O)[C@@H](C)C(=O)C(C)(C)[C@@H](O)CC(=O)O1 [epothilone B],effectiveness relative to epothilone A,approximately ten-time more effective
